Converted amounts (≈) assume the structure as drawn. Read-outs that look alike come from different tables or passages of the source.
Tests used:
[1] = pKa, graphical estimation from solubility-pH data; assay type: physicochemical
Source text: Among the components of Magnolia officinalis extracts with pharmacological activity, the most relevant are magnolol and honokiol. These natural compounds have attracted great interest in recent years for their potential therapeutic applications. However, a limitation in the use of magnolol and honokiol is their poor water solubility, which can greatly restrict gastrointestinal absorption and bioavailability. The water solubilities of magnolol and honokiol at room temperature obtained in this work were 12.5 and 50.6 µg/mL, respectively. However, the solubility of both compounds can be affected by the medium pH, since their molecules contain phenolic groups that can be ionized at alkaline pH values. […] Using the obtained solubility–pH data, the pKa of magnolol can be estimated from the intersection of the straight lines corresponding to pH 1.2–6.8 and to pH 7.4–10 in Figure 3 [36]. […] This discrepancy is probably due to the reduced number of values for the second straight line (pH 9 and 10). […] The different solubility values obtained in both studies could be related to the different agitation time, which was shorter in the study of Lee et al. (2 h vs. 24 h). […] In the case of honokiol, no data about its solubility at different pH values have been found in the available literature. […] Again, the discrepancy in these values could be related to the agitation time (4 h vs. 24 h).

[2] = Stability at room temperature and 37 °C, 30 days, different pH; assay type: physicochemical; conditions: one month
Procedure: The stability was also evaluated at room temperature and 37 °C (pH 1.2, 4.5, 6.8, 7.4, 8, 9, and 10) after an incubation period of 30 days.

[3] = Octanol-water distribution coefficients; assay type: physicochemical
Procedure: Octanol–water distribution coefficients (Do/w) of magnolol and honokiol were determined by dissolving each compound in n-octanol, previously saturated with buffer (pH 1.2, 4.5, 6.8, and 7.4) or water, using glass vials. Buffers and water saturated with n-octanol were added to the corresponding vials, which were stirred for approximately 12 h at room temperature. Thereafter, the organic and the aqueous phases were separated by centrifuging the contents of the vials (2 min at 8000× g), and the concentration of each compound in both phases was determined by HPLC. The distribution coefficient was obtained as the quotient of the concentrations in the n-octanol and aqueous phases.

[4] = Solubility in water, shake-flask method; assay type: physicochemical
Procedure: (§1) The aqueous solubility was evaluated using the shake-flask method. Briefly, approximately 40 mg of magnolol or honokiol were added to a volume of 10 mL of distilled water. The mixture was kept in constant agitation for a total period of 24–48 h. Samples were taken at 24 and 48 h, centrifuged for 2 min at 10× g, and the concentration of the dissolved compound was determined in the supernatant using the analytical method described above. The 48-h sample was used to confirm that a dissolution equilibrium had been reached after 24 h of agitation.

[5] = Solubility at different pH values at 37 °C, shake-flask; assay type: physicochemical; conditions: for solubility at 24 h: 37 °C, thermodynamic from solid
Procedure: as §1
Solubility at different pH values (1.2, 4.5, 6.8, 7.4, 8, 9, and 10) was determined at 37 °C after 24 h of agitation. The composition of the solutions is described in USP 35 [33] and the European Pharmacopeia 7.0 [34]. Briefly, the pH 1.2 solution was prepared with diluted hydrochloric acid, the solutions with pH values from 4.5 to 7.4 were phosphate buffers, and the solutions with pH 9 and 10 were borate buffers. Additionally, two pH 8 solutions were prepared using phosphate and borate buffers.

[6] = computer program; cited from earlier work
[7] = cited from earlier work
[8] = Forced-degradation at 60 °C, different pH values; assay type: physicochemical; conditions: 24 h, 0.1 M HCl, 0.1 M NaOH, buffers pH 7.4-10
Procedure: The stability of both natural products was evaluated in forced conditions at 60 °C using different pH values. Magnolol and honokiol solutions were prepared in 0.1 M HCl, 0.1 M NaOH, and buffers (pH 7.4, 8, 9, and 10). These solutions were kept at 60 °C for 24 h and the concentration of remaining magnolol and honokiol was determined.

[9] = cited from earlier work; remark: listed apart in the source
[10] = Stability under oxidizing conditions (3% H2O2); assay type: physicochemical; conditions: 3% hydrogen peroxide, 24 h, room temperature, 37 °C and 60 °C
Procedure: Additionally, stability was examined under oxidizing conditions using 3% H2O2. These samples were kept at room temperature, 37 °C, and 60 °C, for 24 h. The concentration of samples was expressed as a percentage of the initial concentration.

In the case of `C=CCc1ccc(O)c(-c2ccc(O)c(CC=C)c2)c1` [Honokiol, 3,5′-diallyl-4,2′-dihydroxybiphenyl], the pKa [1] is reported as 8.5, the Degradation ([2]; pH 4.5 and 6.8, 37 °C) is reported as “a decrease in the initial concentration was detected” and the “Concentration, percentage of the initial concentration” value ([2]; pH 7.4, 37 °C) is reported as 29%. For the same compound, the “Concentration, percentage of the initial concentration” value ([2]; pH 7.4, room temperature) was 84%, the Degradation ([2]; pH values lower than 7.4, room temperature) was “no degradation” and the logP ([3]; Log Do/w) was 4.27 ± 0.06. It also gave a logP ([3]; log Po/w) of roughly 4.5, a logD ([3]; pH 1.2) of 4.48 ± 0.05 and a logD ([3]; pH 4.5) of 4.5 ± 0.08. For the same compound, the logD ([3]; pH 6.8) was 4.48 ± 0.04, the logD ([3]; pH 7.4) was 4.28 ± 0.05 and the solubility at 24 h [4] was 50.6 ± 1.2 µg/mL (≈ 190 µM). For the same compound, the solubility at 24 h ([5]; pH 10, aqueous buffer) was roughly 220 µg/mL (≈ 826 µM), the solubility at 24 h [5] was roughly 75 µg/mL (≈ 282 µM) and the “log Po/w, theoretical estimation” value [6] was 4.20.

In the case of `C=CCc1ccc(O)c(-c2cc(CC=C)ccc2O)c1` [Magnolol, 5, 5′-diallyl-2, 2′-dihydroxybiphenyl], the pKa ([1]; intersection of straight lines of solubility-pH profile (Figure 3), read-out: pKa, graphical estimation) is listed as 7.2, the “pKa (first value)” value [7] is listed as 7.10 and the “pKa (second value)” value [7] is listed as 10.58. For the same compound, the “Stability at different pH values” [8] was “relatively stable”, the Solubility ([9]; pH 1.2, 2 h of agitation) was 3.25 µg/mL (≈ 12.2 µM) and the Solubility ([9]; pH 3.5, 2 h of agitation) was 4.95 µg/mL (≈ 18.6 µM). For the same compound, the Solubility ([9]; pH 7.4, 2 h of agitation) was 0.04 µg/mL (≈ 0.15 µM), the “Solubility at pH 7.4 in comparison to pH 1.2, fold lower” value ([9]; study by Lee et al.) was “approximately 99 fold” and the logP ([3]; aqueous phase H2O, n-octanol, room temperature, mean ± SD, n = 4, read-out: Log Do/w) was 4.07 ± 0.09. The logD ([3]; aqueous phase pH 1.2, n-octanol, room temperature, mean ± SD, n = 4, read-out: Log Do/w) was 4.5 ± 0.1, the logD ([3]; aqueous phase pH 4.5, n-octanol, room temperature, mean ± SD, n = 4, read-out: Log Do/w) was 4.55 ± 0.11 and the logD ([3]; aqueous phase pH 6.8, n-octanol, room temperature, mean ± SD, n = 4, read-out: Log Do/w) was 4.48 ± 0.06. For the same compound, the logD ([3]; aqueous phase pH 7.4, n-octanol, room temperature, mean ± SD, n = 4, read-out: Log Do/w) was 4.3 ± 0.08, the logP ([3]; from log Do/w values at the acidic pHs, read-out: log Po/w) was roughly 4.5 and the solubility at 24 h ([4]; water, room temperature, preliminary solubility test, read-out: Solubility in water) was 12.5 ± 0.6 µg/mL (≈ 46.9 µM). The solubility at 24 h ([5]; pH 1.2, simulated gastric fluid, pH 1.2, 37 °C, 24 h agitation, read-out: Solubility) was 14.8 µg/mL (≈ 55.4 µM), the solubility at 24 h ([5]; pH 7.4, aqueous buffer, pH 7.4, 37 °C, 24 h agitation, read-out: Solubility) was 30.5 µg/mL (≈ 115 µM) and the solubility at 24 h ([5]; pH 8, aqueous buffer, pH 8 borate buffer, read-out: Solubility) was 138 µg/mL (≈ 518 µM). The solubility at 24 h ([5]; pH 8, aqueous buffer, pH 8 phosphate buffer, read-out: Solubility) was 76 µg/mL (≈ 285 µM), the solubility at 24 h ([5]; pH 10, aqueous buffer, pH 10, 37 °C, read-out: Solubility) was roughly 2700 µg/mL (≈ 10100 µM) and the solubility at 24 h ([5]; pH values lower than 7.4, 37 °C, 24 h agitation, read-out: Solubility) was roughly 16 µg/mL (≈ 60.1 µM). For the same compound, the “Solubility at pH 7.4 in comparison to pH 1.2, fold higher” value ([5]; present study) was roughly 2 fold, the “Stability under oxidizing conditions” value [10] was “degradation increased with the temperature” and the “log Po/w, theoretical estimation” value [6] was 3.94.
